Assays:
[1] = xn = mol fraction of the nth substance listed; settings: 87 kPa, Liquid, Vibrating tube method
[2] = 87 kPa, Liquid, Vibrating tube method

CC(=O)OC(C)(C)C [1,1-dimethylethyl ethanoate] + OC(CCl)CCl
[1], x2 = 0
Settings | mass density [kg/m3]
293.15 K | 866.95
298.15 K | 861.41
303.15 K | 855.79
308.15 K | 850.17
313.15 K | 844.49

CC(=O)OC(C)(C)C [1,1-dimethylethyl ethanoate] + OCc1ccccc1
mass density [kg/m3], [1]
Settings | 293.15 K | 298.15 K | 303.15 K | 308.15 K | 313.15 K
x2 = 0 | 866.95 | 861.41 | 855.79 | 850.17 | 844.49
x2 = 0.047 | 874.64 | 869.18 | 863.68 | 858.15 | 852.61
x2 = 0.0925 | 882.2 | 876.83 | 871.43 | 865.99 | 860.52
x2 = 0.2017 | 900.32 | 895.16 | 889.77 | 884.75 | 879.5
x2 = 0.3001 | 916.98 | 912 | 906.99 | 901.96 | 896.9
x2 = 0.4 | 934.1 | 929.3 | 924.47 | 919.62 | 914.74
x2 = 0.4999 | 951.7 | 947.08 | 942.4 | 937.73 | 933.04
x2 = 0.6002 | 969.63 | 965.17 | 960.68 | 956.18 | 951.66
x2 = 0.7027 | 988.3 | 984.07 | 979.75 | 975.42 | 971.06
x2 = 0.7996 | 1006.55 | 1002.4 | 998.24 | 994.06 | 989.87
x2 = 0.9059 | 1026.81 | 1022.83 | 1018.83 | 1014.82 | 1010.79
x2 = 0.9528 | 1035.96 | 1032.06 | 1028.11 | 1024.17 | 1020.21

OC(CCl)CCl [1,3-dichloro-2-propanol]
[2]
Settings | mass density [kg/m3]
293.15 K | 1362.66
298.15 K | 1356.74
303.15 K | 1350.72
308.15 K | 1344.71
313.15 K | 1338.65

OC(CCl)CCl [1,3-dichloro-2-propanol] + C=COC(C)=O
mass density [kg/m3], [1]
Settings | 293.15 K | 298.15 K | 303.15 K | 308.15 K | 313.15 K
x1 = 0.0481 | 954.28 | 947.93 | 941.53 | 935.07 | 928.57
x1 = 0.1022 | 978.78 | 972.47 | 966.08 | 959.68 | 953.24
x1 = 0.2021 | 1023.42 | 1017.18 | 1010.91 | 1004.52 | 998.25
x1 = 0.2995 | 1066.61 | 1060.46 | 1054.25 | 1048 | 1041.72
x1 = 0.3953 | 1108.66 | 1102.54 | 1096.39 | 1090.21 | 1083.96
x1 = 0.5002 | 1154.23 | 1148.18 | 1142.09 | 1135.96 | 1129.81
x1 = 0.6003 | 1197.18 | 1191.17 | 1185.12 | 1179.04 | 1172.93
x1 = 0.6999 | 1239.3 | 1233.34 | 1227.29 | 1221.25 | 1215.17
x1 = 0.8007 | 1281.45 | 1275.5 | 1269.5 | 1263.47 | 1257.41
x1 = 0.9014 | 1322.94 | 1317 | 1311 | 1304.98 | 1298.92
x1 = 0.9524 | 1343.43 | 1337.48 | 1331.49 | 1325.46 | 1319.4
x1 = 1 | 1362.66 | 1356.74 | 1350.72 | 1344.71 | 1338.65

OC(CCl)CCl [1,3-dichloro-2-propanol] + CC(=O)OC(C)(C)C
mass density [kg/m3], [1]
Settings | 293.15 K | 298.15 K | 303.15 K | 308.15 K | 313.15 K
x1 = 0.0496 | 885.18 | 879.67 | 874.08 | 868.47 | 862.83
x1 = 0.0948 | 902.23 | 896.7 | 891.14 | 885.54 | 879.9
x1 = 0.2007 | 943.76 | 938.26 | 932.7 | 927.12 | 921.51
x1 = 0.3003 | 985.2 | 979.7 | 974.18 | 968.6 | 963
x1 = 0.4001 | 1029.14 | 1023.63 | 1018.09 | 1012.51 | 1006.91
x1 = 0.4991 | 1075.36 | 1069.84 | 1064.27 | 1058.68 | 1053.06
x1 = 0.6003 | 1125.61 | 1120.05 | 1114.46 | 1108.83 | 1103.17
x1 = 0.7009 | 1179.16 | 1173.55 | 1167.9 | 1162.21 | 1156.49
x1 = 0.8013 | 1236.36 | 1230.68 | 1224.95 | 1219.17 | 1213.37
x1 = 0.9032 | 1298.89 | 1293.07 | 1287.22 | 1281.34 | 1275.42
x1 = 0.9507 | 1329.66 | 1323.78 | 1317.85 | 1311.9 | 1305.91
x1 = 1 | 1362.66 | 1356.74 | 1350.72 | 1344.71 | 1338.65
